Five compounds from PMC7663809, “Dual-Inhibitors of N-Myc and AURKA as Potential Therapy for Neuroendocrine Prostate Cancer” (International Journal of Molecular Sciences, 2020) can be followed below.

The test system of one data set is 22Rv1 cells. Briefly: Cell viability assay, 22Rv1. In kind it is cell-based, human. Conditions: for Growth inhibition of 22Rv1 cells / IC50: serial dilution; for Growth inhibition of 22Rv1 cells: up to 10 µM; for Inhibitory activity in 22Rv1: 1 μM; for Inhibitory activity in 22Rv1 / viability at 5 µM / viability at 10 µM / IC50: 72 h; for viability at 5 µM / viability at 10 µM / IC50: Homo sapiens, 22Rv1; for viability at 5 µM / viability at 10 µM: read-out: % activation (cell viability) in 22Rv1; for IC50: read-out: IC50, growth inhibition of 22Rv1 cells. The protocol:
(§1) NCI-H660 cells were purchased from the American Type Culture Collection (ATCC) and grown in RPMI medium supplemented with 5% fetal bovine serum (FBS), 1% Isulin-Transferrin-Selenium (Thermo Fisher, 41400-045, Waltham, MA, USA), 10 nM b-estradiol (Sigma, E8875; Darmstadt, Germany), 10 nM hydrocortisone (Sigma H0888), and 1% matrigel. HO15.19 cells were a generous gift from John Sidivy at Brown University and were cultured in Dulbecco’s modified Eagle’s medium (DMEM) (ATCC 30–2002) supplemented with 10% FBS. LNCaP-N-Myc and 22rv1-N-Myc cells were a generous gift from David Rickman at Weill Cornell Medicine (New York, NY, USA) and were cultured in RPMI supplemented with 10% FBS.
(§2) Viability of N-Myc -overexpressing LNCaP and 22Rv1 was done with 5000 cells per well in RPMI supplemented with 10% FBS and read with Cell Titer Glo (Promega, cat# G7572; Madison, WI, USA) according to the manufacturer’s protocol. Eagle’s minimum essential medium (EMEM) supplemented with 10% FBS was used for the Myc-negative HO15.19 cells at 2000 cells per well and 20,000 neuroendocrine NCI-H660 cells were plated in RPMI supplemented with 5% FBS, 1% Isulin-Transferrin-Selenium (Thermo Fisher, 41400-045), 10 nM b-estradiol (Sigma, E8875), 10 nM hydrocortisone (Sigma H0888), and 1% matrigel. All cells were incubated for 72 h with the compounds.

Another data set deals with LNCaP cells. Briefly: Cell viability assay, LNCaP. The format is cell-based, human. Conditions: for Growth inhibition of LNCaP cells / IC50: serial dilution; for Growth inhibition of LNCaP cells: up to 10 µM; for Inhibitory activity in LNCaP: 1 μM; for Inhibitory activity in LNCaP / viability at 5 µM / viability at 10 µM / IC50: 72 h; for viability at 5 µM / viability at 10 µM / IC50: Homo sapiens, LNCaP; for viability at 5 µM / viability at 10 µM: read-out: % activation (cell viability) in LNCaP; for IC50: read-out: IC50, growth inhibition of LNCaP cells. The protocol:
LNCaP were plated at 5000 cells per well in RPMI 1640 containing 5% CSS in a 96-well plate, treated with test compounds (0–25 μM) for 72 h. Cell density was measured using the PrestoBlue assay according to the manufacturer’s protocol. The percentage of cell survival was normalized to the cell density of control wells treated by vehicle. […]

In a further data set the test system is HO15.19 cells. The data set is described as follows: Growth / viability in Myc negative cell line HO15.19. In kind it is cell-based. The method, then: as §1
Viability of N-Myc -overexpressing LNCaP and 22Rv1 was done with 5000 cells per well in RPMI supplemented with 10% FBS and read with Cell Titer Glo (Promega, cat# G7572; Madison, WI, USA) according to the manufacturer’s protocol. Eagle’s minimum essential medium (EMEM) supplemented with 10% FBS was used for the Myc-negative HO15.19 cells at 2000 cells per well and 20,000 neuroendocrine NCI-H660 cells were plated in RPMI supplemented with 5% FBS, 1% Isulin-Transferrin-Selenium (Thermo Fisher, 41400-045), 10 nM b-estradiol (Sigma, E8875), 10 nM hydrocortisone (Sigma H0888), and 1% matrigel. […]

The next data set concerns NCI-H660 cells. The data set is described as follows: Cell viability assay, NCI-H660. In kind it is cell-based. Conditions: 72 h; for Inhibitory activity in NCI-H660: 1 μM; for viability at 5 µM / viability at 10 µM: NCI-H660, read-out: % activation (cell viability) in NCI-H660. The protocol:
as §1, §2

The next data set deals with N-Myc-Max DBD (Homo sapiens, UniProt P04198+P61244). The data set is described as follows: Biolayer interferometry: binding of N-Myc-Max complex to biotinylated E-box DNA. Conditions: 100 µM and 200 µM. The method, then: The direct interaction between biotinylated E-box oligo immobilized on a streptavidin biosensor and a purified N-Myc-Max complex (0.05 mg/ml) was quantified by BLI using OctetRED (ForteBio). The DNA was first bound to the super-streptavidin sensors. The sensors were next moved into wells containing the reaction buffer (20 mM Tris pH 8, 150 mM NaCl, 5% glycerol, 0.2 mM TCEP, 5% dimethylsulfoxide) for measuring the baseline and next into the N-Myc-Max complex alone or in presence of the tested inhibitors to study the association of the complex to the DNA.

Another data set deals with Myc-Max. Briefly: Myc-Max luciferase transcription inhibition (Cignal Myc reporter) assay in LNCaP cells. The format is cell-based. As to conditions: Homo sapiens, 24 h, 0-25 μM, 1 day. The method, then:
The eGFP Myc transcriptional activity was assayed as previously described. Briefly, cell transfection was performed using TransIT-2020 transfection reagents according to the manufacturer’s instructions. LNCaP cells were plated at 10,000 cells per well and treated for 1 day with the indicated concentration of compound with increasing concentrations (0−25 μM) of compounds for screening and measuring IC50. Myc reporter activity was measured using the Cignal Myc Reporter Assay Kit from Qiagen (#336841; Hilden, Germany) according to the manufacturer’s instructions.

Another data set concerns the target T1, AURKA (Homo sapiens, UniProt O14965).
T1 construct: 10 ng Aurora-A catalytic domain
T1 sequence (O14965 133-383 limits assumed): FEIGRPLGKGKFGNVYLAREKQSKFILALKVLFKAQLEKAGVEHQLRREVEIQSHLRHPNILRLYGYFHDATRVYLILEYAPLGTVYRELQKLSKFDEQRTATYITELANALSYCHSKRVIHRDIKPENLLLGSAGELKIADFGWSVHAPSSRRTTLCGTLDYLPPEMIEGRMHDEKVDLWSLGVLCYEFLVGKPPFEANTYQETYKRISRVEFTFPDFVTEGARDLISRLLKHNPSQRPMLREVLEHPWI
The data set is described as follows: Aurora A kinase activity assay (ADP-Glo). In kind it is biochemical. As to conditions: read-out: AURKA enzyme activity remaining. The protocol: AURKA kinase assays were performed using the ADP-Glo Kinase assay (Promega) according to the manufacturer protocol. Measurement of Aurora-A activity was carried out using reactions containing (per well):10 ng Aurora-A catalytic domain, 50 uM ATP, and 0.5 myelin basic protein (MBP), in 5% dimethyl sulfoxide (DMSO). Reactions were incubated at room temperature for 60 min, and luminescence data (integration time: 0.5–1 s) was recorded on a Tecan M200 Pro reader (Männedorf, Switzerland).

Sequence of N-Myc-Max DBD (P04198 377-464): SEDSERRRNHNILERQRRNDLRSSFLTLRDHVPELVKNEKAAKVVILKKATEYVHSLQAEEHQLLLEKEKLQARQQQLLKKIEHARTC
Sequence of N-Myc-Max DBD (P61244 22-102): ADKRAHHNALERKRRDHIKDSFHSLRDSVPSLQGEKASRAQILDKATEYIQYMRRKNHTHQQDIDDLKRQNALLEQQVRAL

Regarding `CCc1ccc(/C=C2/SC(=S)NC2=O)cc1` [10058-F4, reference compound], the “Growth inhibition of 22Rv1 cells” value in the data set with 22Rv1 cells is given as “ineffective”. Besides, the “Growth inhibition of LNCaP cells” value in the data set on LNCaP cells is listed as “ineffective”.

As for `O=[N+]([O-])c1ccc(Nc2ccccc2-c2ccccc2)c2nonc12` [10074-G5, reference compound], the “Growth inhibition of 22Rv1 cells” value in the data set with 22Rv1 cells is reported as “ineffective”. The “Growth inhibition of LNCaP cells” value in the data set with LNCaP cells is reported as “ineffective”.

As to `O=C(Nc1ccc(Nc2nccc(Nc3cc(C4CCCC4)[nH]n3)n2)cc1)Nc1cccc(C(F)(F)F)c1` [CD532, reference compound], the “Cytotoxicity in N-Myc negative cell line HO15.19” value with HO15.19 cells (10, 5 and 1 µM, 72 h) is “cytotoxicity”.

In the case of `N#Cc1ccc(NNC(=O)c2ccc(C(F)(F)F)cc2)c(C(F)(F)F)c1` [compound 70551, N′-[4-cyano-2-(trifluoromethyl)phenyl]-4-(trifluoromethyl)benzohydrazide], in the data set with 22Rv1 cells, the “Inhibitory activity in 22Rv1” value is “no significant inhibitory activity”, the viability at 5 µM was over 75%, the viability at 10 µM came to 78.8% and the IC50 is 15.6 µM. Moreover, in the data set on NCI-H660 cells, the “Inhibitory activity in NCI-H660” value is given as “no significant inhibitory activity”, the viability at 5 µM was over 75% and the viability at 10 µM was 49.2%. In addition, in the data set with LNCaP cells, the “Inhibitory activity in LNCaP” value is listed as “no significant inhibitory activity”, the viability at 5 µM is over 75%, the viability at 10 µM was found to be 49.7% and the IC50 is 11.1 µM. At N-Myc-Max DBD, the “Disruption of DNA binding to N-Myc-Max DBD (BLI)” value is listed as “weak disruption”. Moreover, the half-inhibitory concentration (IC50) with Myc-Max is 4 µM. Moreover, the “Toxicity in HO15.19” value with HO15.19 cells (20 μM, 120 h) is on record as “slight toxicity”. The “Effect on HO15.19 growth” value in the data set with HO15.19 cells (N-Myc null cell line, 120 h, below 20 μM) was “minimal effect”.

Regarding `N#Cc1ccc(NNC(=O)c2ccc(Nc3nccc(Nc4cc(C5CCCC5)n[nH]4)n3)cc2)c(C(F)(F)F)c1` [compound 70812], in the data set on 22Rv1 cells, the “Inhibitory activity in 22Rv1” value is listed as “No discernable inhibitory activity”, the viability at 5 µM came to 66.5%, the viability at 10 µM was determined as 16.6% and the IC50 was found to be 3.71 µM. Moreover, in the data set on NCI-H660 cells, the “Inhibitory activity in NCI-H660” value was “No discernable inhibitory activity”, the viability at 5 µM turned out to be 82.9% and the viability at 10 µM stood at 52.1%. In the data set on LNCaP cells, the “Inhibitory activity in LNCaP” value was “No discernable inhibitory activity”, the viability at 5 µM was found to be 32.5%, the viability at 10 µM turned out to be 1.4% and the IC50 is 3.05 µM. Further, on N-Myc-Max DBD, the “Disruption of DNA binding to N-Myc-Max DBD (BLI)” value is “effectively disrupt”. For the same compound, in the data set with Myc-Max, the IC50 was found to be 2 µM. For the same compound, the remaining activity at 5 µM on AURKA (5 µM compound) was 21.1%. On AURKA (10 µM compound), the remaining activity at 10 µM is 19.9%. Besides, the remaining activity at 15 µM at AURKA (15 µM compound) is 18.7%. Also, the remaining activity at 30 µM at AURKA (30 µM compound) was determined as 21.4%.
